According to patent publication US11253557B2, “Therapeutic bacteriophage compositions” (priority 2015, dated 2022):
“And” between values parts separate entries of the source, which are not always exact repeats. Equal entries are not always repeated.

Tested on: S. aureus strain UNT144-3
Assay: S. aureus neutropenic lung model (murine pneumonia model)
Assay type: in vivo, Staphylococcus aureus
Details: neutropenic mice, 100 mg/kg SC at 2 and 6 hrs post-infection, CFU assessed 24 hr
Description: In a non-limiting example, the sensitivity of two S. aureus clinical isolates, UNT109-3 (NRS234, native valve endocarditis) and UNT144-3, that have been previously utilized in animal models of infection, was evaluated vs. the individual phage and the 4-phage cocktail. […] The virulence of the two strains was then evaluated in the murine lung infection model. Female Hsd:ICR(CD-1) mice (Harlan Laboratories, Houston, Tex.) were administered 150 and 100 mg/kg cyclophosphamide on day −4 and day −1 prior to infection to render them neutropenic. Groups of 5 mice were then anaesthetized by intraperitoneal (IP) injection of 0.15 mL of a mixture of ketamine HCl (100 mg/kg body weight) plus xylazine (10 mg/kg body weight). Once anaesthetized, mice were infected intranasally by placing drops on the external nares and allowing inhalation of the 50 μl inoculum. Twenty-four hours after infection, mice were euthanized by CO2 inhalation and lungs processed for bacterial titers. Bacterial counts were enumerated on Brain Heart Infusion agar (Difco™ Laboratories)+0.5% activated charcoal (Sigma-Aldrich) plates for ease of recovering and detecting S. aureus (Barr, J. G., et al., J Clin. Pathol. (1987) 40:372-376). […]
Three phage cocktail treatment groups were evaluated for efficacy: 2×10^10 PFU/mL per phage, 2×10^9 PFU/mL per phage, and 2×10^8 PFU/mL per phage. […]

In the case of `CN[C@H](CC(C)C)C(=O)N[C@H]1C(=O)N[C@@H](CC(N)=O)C(=O)N[C@H]2C(=O)N[C@H]3C(=O)N[C@H](C(=O)N[C@H](C(=O)O)c4cc(O)cc(O)c4-c4cc3ccc4O)[C@H](O)c3ccc(c(Cl)c3)Oc3cc2cc(c3O[C@@H]2O[C@H](CO)[C@@H](O)[C@H](O)[C@H]2O[C@H]2C[C@](C)(N)[C@H](O)[C@H](C)O2)Oc2ccc(cc2Cl)[C@H]1O` [Vancomycin], the “Mean ± SD logo CFU/Lung Pair” value was 5.55 log10 CFU/lung pair and 5.55 ± 1.1 log10 CFU/lung pair.
